{"source": "patent US20220175798A1", "about": "“COMPOSITIONS COMPRISING OXYGENATED CHOLESTEROL SULFATE AND AT LEAST ONE OF POLYALKYLENE GLYCOL, CARBOXYMETHYL CELLULOSE AND POLYOXYLGLYCERIDE” (Durect Corporation, priority 2016, published 2022)", "key": {"[1]": {"test_system": "high fat diet (HFD)-fed hamsters", "experiment": "Pharmacodynamic study in HFD-fed Golden Syrian hamsters (serum chemistry, hepatic lipids, histopathology)", "assay_type": "in vivo", "source_text": "(§1) The subjects for the study were 40 Golden Syrian male hamsters. Two cohorts were provided with either regular diet (RD) or high fat diet (HFD) for 10 weeks. 25HC3 S treatment was initiated at the start of Week 11. Group 1 remained on a regular diet while HFD-fed hamsters were randomly divided into three treatment groups (Groups 2-4; Table 20).\n(§2) The Vehicle was a solution of 0.5% (w/v) CMC and 0.05% (v/v) Tween-80 in water. Powdered 25HC3 S was constituted into the vehicle solution to result in drug concentrations of 2.5 and 10 mg/mL. The suspensions were homogenized for approximately 5 minutes being combined, with 10 second breaks every 30-40 seconds and swirled before dosing to maintain homogeneity. The formulated test article was prepared weekly and kept at room temperature.\n(§3) Hamsters were treated with 25HC3 S by daily oral gavage for 6 weeks while maintained on RD or HFD. Each hamster received daily doses of 25HC3S or vehicle by oral gavage (N=10/group). There were two dose groups (Groups 3 and 4): 10 and 50 mg/kg, as specified in Table 20, with dose volumes of 4 and 5 mL/kg, respectively.\nFor pharmacodynamic measures of efficacy, clinical chemistry parameters were measured by collection of fasting serum throughout the study to assess the effects of HFD and 25HC3S treatment compared to animals on a RD and given the vehicle control.\nAssessments included, but were not limited to, assessment of activity, posture, respiration, emesis, seizure, hydration status, injection site assessment and overall body condition. At the end of the in-life portion of the study (Week 16), all animals were sacrificed and livers collected for biochemical and histopathology analyses."}, "[2]": {"experiment": "Ease of dispersion: appearance of suspension and sedimentation (visual inspection)", "assay_type": "physicochemical", "details": "25 mg/mL in Vehicle PEG 3350 (without L-Methionine)", "description": "Two lots of 25HC3S sodium salt (Lot #A and Lot #B) were used. Lot #B was delumped through a 20 mesh screen. The drug substance was either used directly or further jet-milled, prior to the preparation of suspensions for the studies. A third lot of 25HC3 S sodium salt (Lot #C) was jet-milled first and then used directly or further passed through a 20 mesh screen prior to the studies. More than 10 vehicles were screened. Four mixing methods were evaluated: manual shaking (Mixing Method 1), manual shaking followed by sonication (Mixing Method 2) and homogenization with a sonic probe (Mixing Method 3) as well as mechanical shaking horizontally in a flat bed shaker (Mixing Method 4). Studies #1 to 13 combined vehicle screening, mixing methods and syringeability evaluation. The effect of drug concentrations on the syringeability was evaluated (Studies #10 and 11).\nWeigh approximately 10 to 100 mg each of 25HC3S into 2 mL vials. Add to each vial, 1 mL of vehicle. A total of 3 mixing methods were used to prepare the suspensions. Mixing Method 1: Each vial was manually shaken for 15 to 45 times. The suspension was inspected visually for sedimentation after stored at room temperature (RT) for one minute. […] Mixing Method 2: Each vial was manually shaken 30 times followed by sonication for 3 or 6 minutes for syringeability study. […]"}, "[3]": {"test_system": "renal ischemia/reperfusion injury", "experiment": "Renal ischemia/reperfusion injury in rats", "assay_type": "in vivo, Lewis rats", "details": "50 mg/kg daily for 4 days oral gavage; Day 3; vs vehicle; not statistically significant", "description": "The subjects for the study were 18 adult male Lewis rats (9-11 weeks of age; 225-250 g). […] All animals were in healthy condition and admitted to the study.\nThe Vehicle was a solution of 0.5% (w/v) CMC and 0.05% (v/v) Tween-80 in water. Powdered 25HC3 S was constituted into the vehicle solution to result in a drug concentration of 20 mg/mL. The suspensions were homogenized at 20,000 rotations per minute (rpm) for approximately 5 minutes after being combined, with 10 second breaks every 30-40 seconds and swirled before dosing to maintain homogeneity. The formulated test article was prepared weekly and kept at room temperature.\nAll rats were anesthetized with intraperitoneal injection of pentobarbital (40 mg/kg). Ischemia of the left kidney was achieved by transient occlusion of the left renal artery and vein, and ureter for 50 min with a vascular micro-clip. The skin was temporarily closed during the ischemia period and the rats were put on a heating pad maintained at a temperature of 37° C. At reperfusion, the right kidney was removed before permanently closing the abdomen with 4-0 silk suture Animals were treated with vehicle (N=6) or 25HC3S (N=12) daily for 4 days, starting on the day before the surgery, (pre-treatment, Day −1) and for 2 days after the surgery. […] Serum creatinine (sCr) levels and BUN levels were examined on Day −2 (baseline), Day 3, and/or Day 7 after the surgery."}, "[4]": {"experiment": "Oral pharmacokinetics in HFD-fed Golden Syrian hamsters", "assay_type": "in vivo", "source_text": "as §1, §2, §3\nFor pharmacokinetic (PK) analysis, blood was collected following the first 25HC3S dose. Whole blood samples were collected via the jugular vein at pre-dose, 0.5, 2, 4, 8, 12 hours (h) post dose from each hamster; however, the last blood collection may have been collected by terminal cardiac puncture with the animals deeply anesthetized by isoflurane. Blood samples were placed into tubes containing K2EDTA. The blood was gently mixed to assure distribution of the anti-coagulant and the resulting plasma samples underwent analyses to quantify 25HC3S levels."}, "[5]": {"details": "HFD-fed hamsters, Group 3, 10 mg/kg daily oral gavage 6 weeks"}, "[6]": {"details": "HFD-fed hamsters, Group 4, 50 mg/kg daily oral gavage 6 weeks"}}, "data": [{"smiles": "C[C@H](CCCC(C)(C)O)[C@H]1CC[C@H]2[C@@H]3CC=C4C[C@@H](OS(=O)(=O)[O-])CC[C@]4(C)[C@H]3CC[C@]12C.[Na+]", "note": "[Formulation 25HC3S, 5-cholesten-3, 25-diol, 3-sulfate]", "values": [{"measurement": "hepatic cholesterol levels", "setting": "[1]; 10 mg/kg, 6 weeks", "value": "no effect"}, {"measurement": "hepatic cholesterol levels", "setting": "[1]; 50 mg/kg (Group 4), 6 weeks", "value": "significantly reduced"}, {"measurement": "reduction in serum cholesterol levels", "setting": "[1]; 50 mg/kg (Group 4), 6 weeks of treatment (Week 16), not statistically significant", "value": "15-18%"}, {"measurement": "HFD-related liver weight gain", "setting": "[1]; 6 weeks of treatment", "value": "no statistically significant effect"}, {"measurement": "HDL and LDL cholesterol", "setting": "[1]; 6 weeks of treatment, HFD-fed hamsters", "value": "reduced both HDL and LDL cholesterol in a dose-dependent fashion"}, {"measurement": "ALT and AST levels", "setting": "[1]; 6 weeks of treatment, compared to vehicle", "value": "reduced both ALT and AST levels"}, {"measurement": "incidence of “normal-appearing” livers at gross necropsy", "setting": "[1]; Group 4 (50 mg/kg)", "value": 22, "unit": "%"}, {"measurement": "Hepatic Free Fatty Acids", "setting": "[1]; [5]", "value": "7.3 (±0.6) Meg/mg protein"}, {"measurement": "Hepatic Total Cholesterol", "setting": "[1]; [5]", "value": "155.5 (±37.9) μg/mg protein"}, {"measurement": "Hepatic Triglyceride", "setting": "[1]; [5]", "value": "66.1 (±23.3) μg/mg protein"}, {"measurement": "Hepatic Free Fatty Acids", "setting": "[1]; [6]", "value": "6.6 (±1.4) Meg/mg protein"}, {"measurement": "Hepatic Triglyceride", "setting": "[1]; [6]", "value": "46.4 (±15.6) μg/mg protein"}, {"measurement": "Hepatic Total Cholesterol", "setting": "[1]; HFD-fed hamsters, Group 4, 50 mg/kg daily oral gavage 6 weeks, p < 0.05 compared to Group 2", "value": "75.2 (±45.7) μg/mg protein"}, {"measurement": "clinical signs", "setting": "[1]; PO daily for 6 weeks, hamsters", "value": "did not result in any notable clinical signs"}, {"measurement": "liver histopathology (H&E and Oil Red O)", "setting": "[1]; dose-dependent, compared to HFD-fed control (Group 2)", "value": "considerably less microvesicular changes, reduced Oil Red 0 staining, and milder inflammation"}, {"measurement": "serum triglyceride levels", "setting": "[1]; treated groups vs vehicle across 6 weeks, not statistically significant", "value": "trending higher"}, {"measurement": "hepatic triglyceride levels", "setting": "[1]; with increasing dosage, 6 weeks, did not reach statistical significance", "value": "Reduced"}, {"measurement": "dispersion", "setting": "[2]; flat bed shaker 100 rpm up to 50 minutes (Study #12)", "value": "did not disperse well"}, {"measurement": "dispersion", "setting": "[2]; flat bed shaker 200 rpm up to 45 minutes (Study #13)", "value": "dispersed well"}, {"measurement": "reduction of BUN levels", "setting": "[3]", "value": 5, "unit": "%"}, {"measurement": "reduction of sCr levels", "setting": "[3]", "value": "~20", "unit": "%"}, {"measurement": "dose-normalized AUC", "setting": "[4]; 10 mg/kg oral", "value": 195, "unit": "ng·h/mL/mg"}, {"measurement": "normalized Cmax", "setting": "[4]; 10 mg/kg oral", "value": 32.2, "unit": "ng/mL/mg"}, {"measurement": "normalized Cmax", "setting": "[4]; 50 mg/kg oral", "value": "only half of the 10 mg/kg dose"}, {"measurement": "mean half-life", "setting": "[4]; first oral dose", "value": 3, "unit": "h"}, {"measurement": "time of mean maximum plasma concentration", "setting": "[4]; first oral dose, both doses (10 and 50 mg/kg)", "value": 0.5, "unit": "h"}]}]}
